In assay [1] the target is T1, recombinant human Wee1A kinase (Homo sapiens, UniProt P30291).
T1 construct: full length Wee1 kinase was expressed by baculovirus in insect cells; purchased Invitrogen PV3817; host or cells: insect cells (baculovirus)
Nature of the assay: Wee1A kinase binding assay (LanthaScreen Eu time-resolved FRET). The gist of the method:
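Full-length, baculovirus-expressed GST-tagged Wee1A (5 nM) was mixed with 2 nM Eu-anti-GST antibody, 30 nM kinase tracer 178 and compound (1% DMSO). Buffer was 50 mM HEPES pH 7.5, 10 mM MgCl2, 1 mM EGTA, 0.01% Brij-35, incubated 60 min at room temperature. TR-FRET 665/615 nm emission ratios from duplicates were curve-fitted.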
A general note: TR-FRET usually uses a lanthanide donor and a delayed reading to cut background.

Assay [2] addresses T2, Myt1 kinase (recombinant PMYT-1) (Homo sapiens, UniProt Q99640).
T2 construct: full length PMYT-1 was expressed by baculovirus in insect cells; purchased Invitrogen A30984; host or cells: insect cells (baculovirus)
T2 sequence (Q99640 1-499): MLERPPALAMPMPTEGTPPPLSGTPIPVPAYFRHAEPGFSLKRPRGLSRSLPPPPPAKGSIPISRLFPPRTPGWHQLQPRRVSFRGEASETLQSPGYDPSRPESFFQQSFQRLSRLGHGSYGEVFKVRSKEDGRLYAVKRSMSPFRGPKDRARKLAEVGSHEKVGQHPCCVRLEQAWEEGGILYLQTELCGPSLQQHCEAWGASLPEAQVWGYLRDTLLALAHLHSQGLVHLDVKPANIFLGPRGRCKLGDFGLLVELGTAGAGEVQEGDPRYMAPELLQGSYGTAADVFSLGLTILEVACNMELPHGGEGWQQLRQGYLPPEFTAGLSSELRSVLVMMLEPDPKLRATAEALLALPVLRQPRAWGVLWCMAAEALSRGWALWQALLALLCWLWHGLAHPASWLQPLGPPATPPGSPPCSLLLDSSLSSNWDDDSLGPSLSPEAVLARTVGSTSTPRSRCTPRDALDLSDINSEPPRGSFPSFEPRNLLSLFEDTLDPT
In words: Myt1 kinase binding assay (LanthaScreen Eu Kinase Binding Assay). The gist of the method:
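The binding affinity of compounds for Myt1 kinase was measured with a LanthaScreen Europium (Eu) Kinase Binding Assay, a time-resolved FRET format in which test compounds compete against a labeled kinase tracer, and the results were expressed as IC50 values describing compound binding to Myt1.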

For assay [3], the target named is T3, Wee1A kinase (CDK1 Tyr15 phosphorylation in ACHN renal cell carcinoma cells) (Homo sapiens, UniProt P30291).
T3 construct: pCDK1 Tyr15 immunofluorescence read-out
Nature of the assay: High-content imaging of pCdk1 Y15, Wee1A kinase target engagement in ACHN cells. Type of assay: cell-based. Put shortly: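 ACHN cells exposed to compound for 4 h over 7–5,000 nM or 0.3–200 nM, then fixed and immunostained for pCDK1 Y15 with DAPI nuclear counterstain. The percentage of pCdk1 Y15 nucleus-positive cells relative to DMSO control was imaged per well; EC50 from dose-response curves.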

[4] abbreviates: 30 nM tracer 178, 5 nM Wee1A kinase, 2 nM Eu-labeled antibody, 60 minutes at room temperature, read-out: Wee1A kinase Binding IC50.
The mark [5] stands for this setting: 3 nM tracer 178, 2.5 nM PMYT-1, 1 nM Eu-labeled antibody, read-out: Myt1 kinase Binding IC50.
Setting [6] is: 4 h treatment, nuclear positivity for pCdk1 Y15 vs DMSO control, read-out: CDK1 Tyr15 Phosphorylation EC50.
[7] abbreviates: Myt1 kinase Binding IC50, 3 nM tracer 178, 2.5 nM PMYT-1, 1 nM Eu-labeled antibody.
[8] abbreviates: read-out: CDK1 Tyr15 Phosphorylation EC50, 4 h treatment, nuclear positivity for pCdk1 Y15 vs DMSO control.

Like-named read-outs stand apart in the source and are kept apart here. A value given as a limit tells only on which side of the number the result lay.

T1 sequence (P30291 whole entry): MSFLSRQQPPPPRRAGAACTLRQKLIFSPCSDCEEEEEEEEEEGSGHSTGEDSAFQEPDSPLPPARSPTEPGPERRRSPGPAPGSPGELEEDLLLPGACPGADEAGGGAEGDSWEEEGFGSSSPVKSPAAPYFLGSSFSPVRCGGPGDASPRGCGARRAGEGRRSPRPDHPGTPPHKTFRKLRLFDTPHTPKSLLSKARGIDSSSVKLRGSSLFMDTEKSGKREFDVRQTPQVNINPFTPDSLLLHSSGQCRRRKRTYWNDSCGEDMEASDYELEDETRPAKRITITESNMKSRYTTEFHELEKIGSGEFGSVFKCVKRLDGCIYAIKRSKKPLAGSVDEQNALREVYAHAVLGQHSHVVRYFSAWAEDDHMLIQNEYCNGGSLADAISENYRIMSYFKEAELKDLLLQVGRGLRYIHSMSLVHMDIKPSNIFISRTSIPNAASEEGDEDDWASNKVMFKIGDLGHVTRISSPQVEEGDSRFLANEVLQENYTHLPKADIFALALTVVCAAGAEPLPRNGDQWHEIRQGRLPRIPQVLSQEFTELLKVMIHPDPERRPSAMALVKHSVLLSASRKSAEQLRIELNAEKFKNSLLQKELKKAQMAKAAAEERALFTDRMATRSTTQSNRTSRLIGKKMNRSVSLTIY
T3 sequence (P30291 whole entry): as above

Regarding `C=CCn1c(=O)c2cnc(Nc3ccc(Cl)cc3)nc2n1-c1cccc(NC2CCNCC2)n1` [Compound 124, 2-allyl-6-((4-chlorophenyl)amino)-1-(6-(piperidin-4-ylamino)pyridin-2-yl)-1,2-dihydro-3H-pyrazolo[3,4-d]pyrimidin-3-one], the IC50 (in general, the point on the concentration scale where inhibition reaches its midpoint) in assay [1] (setting [4]) was less than 10 nM; in assay [2] (setting [5]), 20 to 100 nM. The EC50 (in general, the concentration at which the effect is half-maximal) in assay [3] (setting [6]) lay within 500 to 1000 nM.

Consider `C=CCn1c(=O)c2cnc(Nc3ccc(F)cc3)nc2n1-c1cccc(OC2CCCNCC2)n1` (stereo not drawn) [Compound 315, 2-allyl-1-[6-(4-azepanyloxy)-2-pyridyl]-6-(p-fluorophenylamino)-1,2-dihydro-3H-1,2,5,7-tetraazainden-3-one], for which the IC50 in assay [1] (setting [4]) is less than 10 nM; in assay [2] (setting [5]), 20 to 100 nM. Moreover, the EC50 in assay [3] (setting [6]) was in the range of 500 to 1000 nM.

In the case of `C=CCn1c(=O)c2cnc(Nc3ccc4c(c3)nnn4C(C)C)nc2n1-c1cccc(OC2CCN(C)CC2)n1` [Compound 409, 2-allyl-6-((1-isopropyl-1H-benzo[d][1,2,3]triazol-5-yl)amino)-1-(6-((1-methylpiperidin-4-yl)oxy)pyridin-2-yl)-1,2-dihydro-3H-pyrazolo[3,4-d]pyrimidin-3-one], the IC50 in assay [1] (setting [4]) was less than 10 nM; in assay [2] (setting [5]), less than 20 nM. In addition, in assay [3] (setting [6]), the EC50 was less than 100 nM.

With `C=CCn1c(=O)c2cnc(Nc3ccc(F)cc3)nc2n1-c1cccc(O[C@H]2CCCNCC2)n1` (single isomer, unassigned) [Compound 266], the IC50 was less than 10 nM in assay [1] (setting [4]) and 20 to 100 nM in assay [2] (setting [5]). Moreover, the EC50 in assay [3] (setting [6]) was in the range of 100 to 500 nM.

For the compound `C=CCn1c(=O)c2cnc(Nc3ccc(C(F)(F)F)cc3)nc2n1-c1cccc(NC2CCNCC2)n1` [Compound 131, 2-allyl-1-[6-(4-piperidylamino)-2-pyridyl]-6-[p-(trifluoromethyl)phenylamino]-1,2-dihydro-3H-1,2,5,7-tetraazainden-3-one], the IC50 is less than 10 nM in assay [1] (setting [4]) and 100 to 500 nM in assay [2] (setting [5]). Also, in assay [3] (setting [6]), the EC50 lay within 500 to 1000 nM.

Turning to `CCn1c(=O)c2cnc(Nc3ccc(Br)cc3)nc2n1-c1cccc(OC2CCNCC2)n1` [Compound 267, 6-(p-bromophenylamino)-2-ethyl-1-[6-(4-piperidyloxy)-2-pyridyl]-1,2-dihydro-3H-1,2,5,7-tetraazainden-3-one], the IC50 is less than 10 nM in assay [1] (setting [4]) and 20 to 100 nM in assay [2] (setting [5]). Further, the EC50 in assay [3] (setting [6]) was 100 to 500 nM.

In the case of `C=CCn1c(=O)c2cnc(Nc3cc(C)cc(OC(F)(F)F)c3)nc2n1-c1cccc(NC2CCNCC2)n1` [Compound 155, 6-{[3-methyl-5-(trifluoromethoxy)phenyl]amino}-1-{6-[(piperidin-4-yl)amino]pyridin-2-yl}-2-(prop-2-en-1-yl)-1H,2H,3H-pyrazolo[3,4-d]pyrimidin-3-one], the IC50 in assay [1] (setting [4]) was less than 10 nM; in assay [2] (setting [5]), 100 to 500 nM. The EC50 in assay [3] (setting [6]) was in the range of 500 to 1000 nM.

As for `C=CCn1c(=O)c2cnc(Nc3ccc(Cl)cc3)nc2n1-c1cccc(N[C@@H]2CCCNC2)n1` [Compound 166, 1-{6-[(R)-3-piperidylamino]-2-pyridyl}-2-allyl-6-(p-chlorophenylamino)-1,2-dihydro-3H-1,2,5,7-tetraazainden-3-one], the 50% inhibitory concentration (IC50) in assay [1] (setting [4]) is less than 10 nM; in assay [2] (setting [5]), 100 to 500 nM. The EC50 in assay [3] (setting [6]) is greater than 1000 nM.

`C=CCn1c(=O)c2cnc(Nc3ccc(F)cc3)nc2n1-c1ccnc(OC2CCN(C)CC2)n1` [Compound 348, 2-allyl-6-((4-fluorophenyl)amino)-1-(2-((1-methylpiperidin-4-yl)oxy)pyrimidin-4-yl)-1,2-dihydro-3H-pyrazolo[3,4-d]pyrimidin-3-one]: the figures for the IC50 in assay [1] (setting [4]) and in assay [2] (setting [5]) were less than 10 nM and 20 to 100 nM, respectively. The EC50 in assay [3] (setting [6]) is less than 100 nM.

Consider `CCn1c(=S)c2cnc(Nc3ccc4c(cnn4C)c3)nc2n1-c1cccc(OC2CCN(C)CC2)n1` [Compound 362, 2-ethyl-6-[(1-methyl-1H-indazol-5-yl)amino]-1-{6-[(1-methylpiperidin-4-yl)oxy]pyridin-2-yl}-1H,2H,3H-pyrazolo[3,4-d]pyrimidine-3-thione], for which the IC50 in assay [1] (setting [4]) was less than 10 nM; in assay [2] (setting [5]) it was 100 to 500 nM. Also, the EC50 in assay [3] (setting [6]) was in the range of 100 to 500 nM.

In the case of `C=CCn1c(=O)c2cnc(Nc3ccc4c(cnn4C)c3)nc2n1-c1cccc(O[C@H]2CCN[C@H](C)C2)n1` (stereo in doubt) [Compound 379, 2-allyl-6-((1-methyl-1H-indazol-5-yl)amino)-1-(6-(((2R,4S)-2-methylpiperidin-4-yl)oxy)pyridin-2-yl)-1,2-dihydro-3H-pyrazolo[3,4-d]pyrimidin-3-one], the IC50 in assay [1] (setting [4]) was less than 10 nM; in assay [2] (setting [5]) it was 100 to 500 nM. For the same compound, the EC50 in assay [3] (setting [6]) was 100 to 500 nM.

On to `CCn1c(=O)c2cnc(Nc3cccc(-c4cnn(C)c4)c3)nc2n1-c1cccc(OC2CCNCC2)n1` [Compound 340, 2-ethyl-6-[m-(1-methyl-4-pyrazolyl)phenylamino]-1-[6-(4-piperidyloxy)-2-pyridyl]-1,2-dihydro-3H-1,2,5,7-tetraazainden-3-one], for which the IC50 in assay [1] (setting [4]) is less than 10 nM; in assay [2] (setting [5]), 100 to 500 nM. Further, the EC50 in assay [3] (setting [6]) was greater than 1000 nM.

Regarding `C=CCn1c(=O)c2cnc(Nc3cnn(C(C)C)c3)nc2n1-c1cccc(N(C)C2CCNCC2)n1` [Compound 169, 1-{6-[methyl(piperidin-4-yl)amino]pyridin-2-yl}-2-(prop-2-en-1-yl)-6-{[1-(propan-2-yl)-1H-pyrazol-4-yl]amino}-1H,2H,3H-pyrazolo[3,4-d]pyrimidin-3-one], the IC50 was less than 10 nM in assay [1] and greater than 500 nM in assay [2] (setting [7]). Also, the EC50 in assay [3] (setting [8]) was greater than 1000 nM.

As for `C=CCn1c(=O)c2cnc(Nc3cnn(CC(C)(C)F)c3)nc2n1-c1cccc(N(C)C2CCNCC2)n1` [Compound 183, 1-[6-(N-methyl-N-4-piperidylamino)-2-pyridyl]-2-allyl-6-[1-(2-fluoro-2-methylpropyl)-4-pyrazolylamino]-1,2-dihydro-3H-1,2,5,7-tetraazainden-3-one], the IC50 was less than 10 nM in assay [1] and greater than 500 nM in assay [2] (setting [7]). Further, in assay [3] (setting [8]), the EC50 was greater than 1000 nM.

Take `C=CCn1c(=O)c2cnc(Nc3ccc4[nH]nc(Cl)c4c3)nc2n1-c1cccc(OC2CCNCC2)n1` [Compound 275, 2-allyl-6-((3-chloro-1H-indazol-5-yl)amino)-1-(6-(piperidin-4-yloxy)pyridin-2-yl)-1,2-dihydro-3H-pyrazolo[3,4-d]pyrimidin-3-one]: the IC50 in assay [1] (setting [4]) was less than 10 nM; in assay [2] (setting [5]), 20 to 100 nM. In addition, the EC50 in assay [3] (setting [6]) was greater than 1000 nM.

Consider `C=CCn1c(=O)c2cnc(Nc3ccc(Cl)c(Cl)c3)nc2n1-c1cccc(NC2CCNCC2)n1` [Compound 146, 2-allyl-6-(3,4-dichlorophenylamino)-1-[6-(4-piperidylamino)-2-pyridyl]-1,2-dihydro-3H-1,2,5,7-tetraazainden-3-one], for which the half-inhibitory concentration (IC50) in assay [1] (setting [4]) was less than 10 nM; in assay [2] (setting [5]), 100 to 500 nM. For the same compound, the EC50 in assay [3] (setting [6]) was greater than 1000 nM.

Consider `C=CCn1c(=O)c2cnc(Nc3cncc(Cl)c3)nc2n1-c1cccc(OC2CCN(C)CC2)n1` [Compound 323, 2-allyl-6-(5-chloro-3-pyridylamino)-1-[6-(1-methyl-4-piperidyloxy)-2-pyridyl]-1,2-dihydro-3H-1,2,5,7-tetraazainden-3-one], for which the IC50 in assay [1] (setting [4]) is less than 10 nM; in assay [2] (setting [5]), 20 to 100 nM. Besides, the EC50 in assay [3] (setting [6]) is 100 to 500 nM.

Regarding `C=CCn1c(=O)c2cnc(Nc3ccc4c(cnn4C)c3)nc2n1-c1ccnc(OC2CCNCC2)n1` [Compound 350, 2-allyl-6-((1-methyl-1H-indazol-5-yl)amino)-1-(2-(piperidin-4-yloxy)pyrimidin-4-yl)-1,2-dihydro-3H-pyrazolo[3,4-d]pyrimidin-3-one], the values for the IC50 in assay [1] (setting [4]) and in assay [2] (setting [5]) were less than 10 nM and 100 to 500 nM, respectively. For the same compound, the half-maximal effective concentration (EC50) in assay [3] (setting [6]) lay in the range of 100 to 500 nM.

Turning to `C=CCn1c(=O)c2cnc(Nc3ccc4ncnn4c3)nc2n1-c1cccc(OC2CCNCC2)n1` [Compound 245, 2-allyl-6-(1,3,3a-triaza-5-indenylamino)-1-[6-(4-piperidyloxy)-2-pyridyl]-1,2-dihydro-3H-1,2,5,7-tetraazainden-3-one], the results for the IC50 in assay [1] (setting [4]) and in assay [2] (setting [5]) were less than 10 nM and 20 to 100 nM, respectively. For the same compound, the EC50 in assay [3] (setting [6]) is greater than 1000 nM.

(Values after patent US20260364080A1, “PYRAZOLO-PYRIMIDINONE COMPOUNDS FOR USE IN METHODS OF INHIBITING WEE1 A KINASE” (Acrivon Therapeutics, Inc., priority 2023, published 2026).)
